Results as given in PubChem BioAssay (NCI).
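Interpolation was linear, between the two tested concentrations surrounding the appropriate level; five concentrations were tested over 48 hours in 96-well plates. Here, GI50 denotes the concentration required for 50% inhibition of growth. TGI marks complete inhibition of growth.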

Key:
Experiment in all cases: growth of human tumour cells (NCI), 48 h
MOLT-4 leukemia = test system: MOLT-4 leukemia
SN12C renal = test system: SN12C renal
SW-620 colon = test system: SW-620 colon
BT-549 breast = test system: BT-549 breast
NCI/ADR-RES ovarian = test system: NCI/ADR-RES ovarian
HCT-15 colon = test system: HCT-15 colon
M14 melanoma = test system: M14 melanoma
NCI-H460 lung = test system: NCI-H460 lung
HCC-2998 colon = test system: HCC-2998 colon
A498 renal = test system: A498 renal
CAKI-1 renal = test system: CAKI-1 renal
SNB-75 CNS = test system: SNB-75 CNS
SK-MEL-28 melanoma = test system: SK-MEL-28 melanoma
SF-268 CNS = test system: SF-268 CNS
LOX IMVI melanoma = test system: LOX IMVI melanoma
IGROV1 ovarian = test system: IGROV1 ovarian
COLO 205 colon = test system: COLO 205 colon
MALME-3M melanoma = test system: MALME-3M melanoma
UACC-257 melanoma = test system: UACC-257 melanoma
NCI-H226 lung = test system: NCI-H226 lung
UACC-62 melanoma = test system: UACC-62 melanoma
SNB-19 CNS = test system: SNB-19 CNS
MDA-MB-231 breast = test system: MDA-MB-231 breast
NCI-H522 lung = test system: NCI-H522 lung
U251 CNS = test system: U251 CNS
RXF 393 renal = test system: RXF 393 renal
TK-10 renal = test system: TK-10 renal
EKVX NSCLC = test system: EKVX NSCLC
RPMI-8226 leukemia = test system: RPMI-8226 leukemia
OVCAR-4 ovarian = test system: OVCAR-4 ovarian
SK-OV-3 ovarian = test system: SK-OV-3 ovarian
HOP-92 NSCLC = test system: HOP-92 NSCLC
T-47D breast = test system: T-47D breast
SF-539 CNS = test system: SF-539 CNS
SK-MEL-2 melanoma = test system: SK-MEL-2 melanoma
K-562 leukemia = test system: K-562 leukemia
MDA-MB-435 = test system: MDA-MB-435
KM12 colon = test system: KM12 colon
SF-295 CNS = test system: SF-295 CNS
A549 NSCLC = test system: A549 NSCLC
786-0 renal = test system: 786-0 renal
UO-31 renal = test system: UO-31 renal
MCF7 breast = test system: MCF7 breast
NCI-H23 lung = test system: NCI-H23 lung
HL-60(TB) leukemia = test system: HL-60(TB) leukemia
SR leukemia = test system: SR leukemia
PC-3 prostate = test system: PC-3 prostate
HT29 colon = test system: HT29 colon
CCRF-CEM leukemia = test system: CCRF-CEM leukemia
HS 578T breast = test system: HS 578T breast
HCT-116 colon = test system: HCT-116 colon
ACHN renal = test system: ACHN renal
HOP-62 NSCLC = test system: HOP-62 NSCLC
OVCAR-8 ovarian = test system: OVCAR-8 ovarian
OVCAR-5 ovarian = test system: OVCAR-5 ovarian
DU-145 prostate = test system: DU-145 prostate
SK-MEL-5 melanoma = test system: SK-MEL-5 melanoma
OVCAR-3 ovarian = test system: OVCAR-3 ovarian

`COc1ccc2c(c1)C(=O)c1c-2n(CCCN=[N+]=[N-])c(=O)c2ccccc12` was tested, and the GI50 (MOLT-4 leukemia) was 4.38 µM, the TGI (MOLT-4 leukemia) was > 100 µM and the GI50 (SN12C renal) was > 100 µM. The TGI (SN12C renal) was > 100 µM, the GI50 (SW-620 colon) was 25.5 µM and the TGI (SW-620 colon) was > 100 µM. For the same compound, the GI50 (BT-549 breast) was 89.9 µM, the TGI (BT-549 breast) was > 100 µM and the GI50 (NCI/ADR-RES ovarian) was 91.2 µM. For the same compound, the TGI (NCI/ADR-RES ovarian) was > 100 µM, the GI50 (HCT-15 colon) was 58.4 µM and the TGI (HCT-15 colon) was > 100 µM. For the same compound, the GI50 (M14 melanoma) was 75.1 µM, the TGI (M14 melanoma) was > 100 µM and the GI50 (NCI-H460 lung) was 4.86 µM. For the same compound, the TGI (NCI-H460 lung) was > 100 µM, the GI50 (HCC-2998 colon) was 61.9 µM and the TGI (HCC-2998 colon) was > 100 µM. The GI50 (A498 renal) was 21.1 µM, the TGI (A498 renal) was 69.2 µM and the GI50 (CAKI-1 renal) was 49.7 µM. For the same compound, the TGI (CAKI-1 renal) was > 100 µM, the GI50 (SNB-75 CNS) was 18.8 µM and the TGI (SNB-75 CNS) was 65.2 µM. For the same compound, the GI50 (SK-MEL-28 melanoma) was > 100 µM, the TGI (SK-MEL-28 melanoma) was > 100 µM and the GI50 (SF-268 CNS) was 39.8 µM. For the same compound, the TGI (SF-268 CNS) was > 100 µM, the GI50 (LOX IMVI melanoma) was 27.9 µM and the TGI (LOX IMVI melanoma) was > 100 µM. For the same compound, the GI50 (IGROV1 ovarian) was 32.8 µM, the TGI (IGROV1 ovarian) was > 100 µM and the GI50 (COLO 205 colon) was 34.6 µM. The TGI (COLO 205 colon) was > 100 µM, the GI50 (MALME-3M melanoma) was > 100 µM and the TGI (MALME-3M melanoma) was > 100 µM. For the same compound, the GI50 (UACC-257 melanoma) was > 100 µM, the TGI (UACC-257 melanoma) was > 100 µM and the GI50 (NCI-H226 lung) was > 100 µM. The TGI (NCI-H226 lung) was > 100 µM, the GI50 (UACC-62 melanoma) was 75.5 µM and the TGI (UACC-62 melanoma) was > 100 µM. The GI50 (SNB-19 CNS) was 17.6 µM, the TGI (SNB-19 CNS) was > 100 µM and the GI50 (MDA-MB-231 breast) was > 100 µM. The TGI (MDA-MB-231 breast) was > 100 µM, the GI50 (NCI-H522 lung) was 10.8 µM and the TGI (NCI-H522 lung) was > 100 µM. For the same compound, the GI50 (U251 CNS) was 27.5 µM, the TGI (U251 CNS) was > 100 µM and the GI50 (RXF 393 renal) was 89.8 µM. For the same compound, the TGI (RXF 393 renal) was > 100 µM, the GI50 (TK-10 renal) was 60 µM and the TGI (TK-10 renal) was > 100 µM. For the same compound, the GI50 (EKVX NSCLC) was 63 µM, the TGI (EKVX NSCLC) was > 100 µM and the GI50 (RPMI-8226 leukemia) was 51.3 µM. The TGI (RPMI-8226 leukemia) was > 100 µM, the GI50 (OVCAR-4 ovarian) was 58.6 µM and the TGI (OVCAR-4 ovarian) was > 100 µM. For the same compound, the GI50 (SK-OV-3 ovarian) was 20.3 µM, the TGI (SK-OV-3 ovarian) was 69.5 µM and the GI50 (HOP-92 NSCLC) was 50.7 µM. The TGI (HOP-92 NSCLC) was > 100 µM, the GI50 (T-47D breast) was 25.9 µM and the TGI (T-47D breast) was > 100 µM. For the same compound, the GI50 (SF-539 CNS) was 44.8 µM, the TGI (SF-539 CNS) was > 100 µM and the GI50 (SK-MEL-2 melanoma) was 46 µM. For the same compound, the TGI (SK-MEL-2 melanoma) was > 100 µM, the GI50 (K-562 leukemia) was 26 µM and the TGI (K-562 leukemia) was > 100 µM. For the same compound, the GI50 (MDA-MB-435) was 65.2 µM, the TGI (MDA-MB-435) was > 100 µM and the GI50 (KM12 colon) was > 100 µM. For the same compound, the TGI (KM12 colon) was > 100 µM, the GI50 (SF-295 CNS) was 18.5 µM and the TGI (SF-295 CNS) was > 100 µM. The GI50 (A549 NSCLC) was 52.2 µM, the TGI (A549 NSCLC) was > 100 µM and the GI50 (786-0 renal) was 27.9 µM. The TGI (786-0 renal) was > 100 µM, the GI50 (UO-31 renal) was 43.4 µM and the TGI (UO-31 renal) was > 100 µM. The GI50 (MCF7 breast) was 1.5 µM, the TGI (MCF7 breast) was > 100 µM and the GI50 (NCI-H23 lung) was 50.4 µM. The TGI (NCI-H23 lung) was > 100 µM, the GI50 (HL-60(TB) leukemia) was 54.1 µM and the TGI (HL-60(TB) leukemia) was > 100 µM. For the same compound, the GI50 (SR leukemia) was 5.7 µM, the TGI (SR leukemia) was > 100 µM and the GI50 (PC-3 prostate) was 51.4 µM. For the same compound, the TGI (PC-3 prostate) was > 100 µM, the GI50 (HT29 colon) was 41.4 µM and the TGI (HT29 colon) was > 100 µM. For the same compound, the GI50 (CCRF-CEM leukemia) was 10.1 µM, the TGI (CCRF-CEM leukemia) was > 100 µM and the GI50 (HS 578T breast) was 62.4 µM. For the same compound, the TGI (HS 578T breast) was > 100 µM, the GI50 (HCT-116 colon) was 26.7 µM and the TGI (HCT-116 colon) was > 100 µM. The GI50 (ACHN renal) was 28.7 µM, the TGI (ACHN renal) was > 100 µM and the GI50 (HOP-62 NSCLC) was 34.2 µM. The TGI (HOP-62 NSCLC) was > 100 µM, the GI50 (OVCAR-8 ovarian) was 73 µM and the TGI (OVCAR-8 ovarian) was > 100 µM. The GI50 (OVCAR-5 ovarian) was > 100 µM, the TGI (OVCAR-5 ovarian) was > 100 µM and the GI50 (DU-145 prostate) was 61.5 µM. For the same compound, the TGI (DU-145 prostate) was > 100 µM, the GI50 (SK-MEL-5 melanoma) was 14.6 µM and the TGI (SK-MEL-5 melanoma) was > 100 µM. For the same compound, the GI50 (OVCAR-3 ovarian) was 52.4 µM and the TGI (OVCAR-3 ovarian) was > 100 µM.
